# Laboratory results taken from US20210278402A1, “METHOD FOR TESTING OF ANTIBIOTIC SUSCEPTIBILITY IN MICROORGANISMS” (MODULE INNOVATIONS PRIVATE LIMITED, priority 2018, published 2021).
# Where two headings read alike, the source gives them in different places.
# Legend:
# K. pneumoniae [1] = test: CLSI reference method of microdilution; format: cell-based; details: for MIC: Klebsiella pneumoniae; for Interpretation by Microdilution: EUCAST breakpoints
# K. pneumoniae [2] = test: Antibiotic susceptibility testing by the method of the present invention (AuNP-GOx-Ab nanoprobes, absorbance at 545 nm); format: cell-based; details: for MIC: Klebsiella pneumoniae, MIC = dilution showing the criterion % reduction compared to no antibiotics (34% levofloxacin, 23% amikacin), read-out: MIC obtained with the diagnostic method assay; for Interpretation of results of the present method: Patient two urine sample infected with K. pneumoniae, antibiotic at EUCAST breakpoint concentration of Table 1
# Description: (§1) 250 μL of urine sample was mixed with 250 μL of 2× Mueller-Hinton broth in autoclaved Eppendorf tubes. Respective concentrations of antibiotics as recited in Table 1 were added in each tubes along with one tube without antibiotic which served as a control for monitoring the growth of bacteria. 7-10 μL of the nanoprobes (AuNP-GOx-Ab) prepared in the Example 2 above was added to the mixture and allowed to incubate at 37° C. for 90 minutes to allow growth of bacteria. The solution was then passed through a membrane filter with a pore size of about 450 nm diameter to separate the bacteria bound to the nanoprobes from the unbound ones. The bacteria bound nanoprobes (nanoprobe-bacteria complex) captured on the membrane surface were then recovered by injecting 250 μL of sodium acetate buffer (10 mM, pH 5.1) from the opposite direction.
# (§2) 250 μL of the recovered bacteria-nanoprobe complexes were then incubated at 37° C. for 10 minutes with 50 μL glucose solution (final concentration 100 mM) for production of hydrogen peroxide. After 10 minutes, 150 μL of seed solution containing about 16 nM gold nanoparticles having about 5 nm size and 150 μL of 1.25 mM HAuCl4 solution was added to induce growth of the seed particles and left for 20 minutes to allow growth of the seed particle. Finally, the growth of seed nanoparticles and the intensity of colour formed were determined by recording an absorption spectrum for each sample. FIG. 8(a) provides graphic representation of UV-Visible spectra for antibiotic sensitivity test of patient urine samples with different antibiotics, according to an embodiment of the present invention.
# The antibacterial susceptibility test of patient two urine sample containing K. pneumoniae towards the antibiotics ampicillin, gentamicin, levofloxacin and imipenem was performed as mentioned above.
# (§3) MIC determination protocol was tested on other antibiotics-bacteria combinations as well and percent reduction criterion was determined for each pair from repeated tests.
# E. coli [3] = test: as above; format: cell-based; details: for Interpretation of results of the present method: Patient two urine sample infected with E. coli (10^4 CFU/mL), antibiotic at EUCAST breakpoint concentration of Table 1
# Description: as §1
# as §2, with “sample.” for “sample. FIG. 8(a) provides graphic representation of UV-Visible spectra for antibiotic sensitivity test of patient urine samples with different antibiotics, according to an embodiment of the present invention.”
# as §3
# K. pneumoniae [4] = test: VITEK automated susceptibility test; format: cell-based; details: for MIC: Klebsiella pneumoniae, patient two urine sample infected with K. pneumoniae, read-out: MIC reported by VITEK
# Description: (§4) The AST market has several products based on the method they employ for testing that include automated systems, discs, MIC strips and media. Most extensively used method to determine antibiotic susceptibility involve culture tests based on the phenotypic growth of the bacteria, which require three days to arrive at the conclusion (Puttaswamy S. et al., 2018). Although culture-based growth methods are the most widely used systems for AST, a few sophisticated high-end labs and hospitals employ automated test machines such as Vitek 2.0 from Biomeriux Technologies, Phoenix from BD etc. These instruments work on the measurement of light attenuation by optical scanner for growth/no growth of bacteria in micro-wells with different antibiotics.
# E. coli [5] = test: CLSI reference method of microdilution; format: cell-based; details: for MIC: Escherichia coli
# P. aeruginosa [6] = test: CLSI reference method of microdilution; format: cell-based; details: for MIC: Pseudomonas aeruginosa, patient two sample infected with P. aeruginosa, read-out: MIC reported by Microdilution
# P. aeruginosa [7] = test: VITEK automated susceptibility test; format: cell-based; details: for MIC: Pseudomonas aeruginosa, patient two sample infected with P. aeruginosa, read-out: MIC reported by VITEK
# Description: as §4
# E. coli [8] = test: VITEK automated susceptibility test; format: cell-based; details: for MIC: Escherichia coli, read-out: MIC reported by VITEK
# Description: as §4
# E. faecalis [9] = test: CLSI reference method of microdilution; details: for MIC: Enterococcus faecalis, read-out: MIC reported by Microdilution
# E. faecalis [10] = test: Antibiotic susceptibility testing by the method of the present invention (AuNP-GOx-Ab nanoprobes, absorbance at 545 nm); format: cell-based; details: Patient two sample infected with E. faecalis, antibiotic at EUCAST breakpoint concentration of Table 1
# Description: as §1
# (§5) 250 μL of the recovered bacteria-nanoprobe complexes were then incubated at 37° C. for 10 minutes with 50 μL glucose solution (final concentration 100 mM) for production of hydrogen peroxide. […] Finally, the growth of seed nanoparticles and the intensity of colour formed were determined by recording an absorption spectrum for each sample. […]
# [11] = system: multi-drug resistant P. aeruginosa; test: as above; format: cell-based; details: Patient two sample infected with multi-drug resistant P. aeruginosa, antibiotic at EUCAST breakpoint concentration of Table 1
# Description: as §1, §5
# [12] = glucose 100 mM, 37° C., 10 minutes
# Description: Varying concentrations of GOx, namely, 6 mU, 10 mU and 30 mU and glucose (100 mM) were incubated at 37° C. for 10 minutes and the hydrogen peroxide produced was determined using a H2O2 assay kit (MAK165-SIGMA-ALDRICH).
# [13] = Clinical isolate K. pneumoniae, read-out: MIC obtained with CLSI reference method of microdilution
# [14] = patient two urine sample infected with K. pneumoniae, read-out: MIC reported by Microdilution
# [15] = Patient two urine sample infected with K. pneumoniae
# [16] = patient two urine sample infected with E. coli
# [17] = Patient one urine sample infected with E. coli
# [18] = Patient two sample infected with P. aeruginosa
compound,measurement,setting,value
NCC[C@H](O)C(=O)N[C@@H]1C[C@H](N)[C@@H](O[C@H]2O[C@H](CN)[C@@H](O)[C@H](O)[C@H]2O)[C@H](O)[C@H]1O[C@H]1O[C@H](CO)[C@@H](O)[C@H](N)[C@H]1O [Amikacin],Interpretation by CLSI reference method of microdilution,K. pneumoniae [1]; Clinical isolate K. pneumoniae,Resistant
same,MIC,K. pneumoniae [1]; [13],128 µg/mL
same,Interpretation by diagnostic method,K. pneumoniae [2]; Clinical isolate K. pneumoniae,Resistant
same,MIC,K. pneumoniae [2]; Clinical isolate K. pneumoniae,128 µg/mL
CC1(C)S[C@@H]2[C@H](NC(=O)[C@H](N)c3ccccc3)C(=O)N2[C@H]1C(=O)O [Ampicillin],Interpretation of results of the present method,E. coli [3],Sensitive
same,Interpretation of results of the present method,E. coli [3]; listed as ampicillin,sensitive
same,MIC,K. pneumoniae [1]; [14],256 µg/mL
same,Interpretation by Microdilution,K. pneumoniae [1]; [15],Resistant
same,MIC,K. pneumoniae [4],> 16 µg/mL
same,Interpretation by VITEK,K. pneumoniae [4]; [15],Resistant
same,Interpretation by Microdilution,"E. coli [5]; Patient two urine sample infected with E. coli, EUCAST breakpoints",Sensitive
same,Interpretation of results of the present method,K. pneumoniae [2],Resistant
same,Interpretation of results of the present method,K. pneumoniae [2]; listed as ampicillin,resistant
C[C@@H](O)[C@H]1C(=O)N2C(C(=O)O)=C(SCCN=CN)C[C@H]12 [Imipenem],MIC,P. aeruginosa [6],≥ 32 µg/mL
same,MIC,"E. coli [3]; Escherichia coli, Clinical isolate E. coli, MIC = dilution showing the criterion % reduction compared to no antibiotics (55% for imipenem), read-out: MIC obtained with the diagnostic method assay",0.125 µg/mL
same,MIC,K. pneumoniae [1]; [14],0.125 µg/mL
same,MIC,P. aeruginosa [7],≥ 16 µg/mL
same,MIC,K. pneumoniae [4],≤ 0.25 µg/mL
same,MIC,E. coli [8]; patient one urine sample infected with E. coli,≤ 0.25 µg/mL
same,MIC,"E. coli [5]; Clinical isolate E. coli, read-out: MIC obtained with CLSI reference method of microdilution",0.25 µg/mL
same,MIC,"E. coli [5]; patient one urine sample infected with E. coli, read-out: MIC reported by Microdilution",0.25 µg/mL
same,MIC,E. faecalis [9],0.5 µg/mL
C[C@H]1COc2c(N3CCN(C)CC3)c(F)cc3c(=O)c(C(=O)O)cn1c23 [Levofloxacin],MIC,P. aeruginosa [6],≥ 32 µg/mL
same,MIC (concentration at which signal intensity shows 34% reduction against the control),"E. coli [3]; E. coli as printed in text, present method, 34% reduction criterion",16 µg/mL
same,MIC,K. pneumoniae [1]; [13],16 µg/mL
same,MIC,P. aeruginosa [7],≥ 8 µg/mL
same,MIC,E. coli [8]; [16],≥ 8 µg/mL
same,MIC reported by VITEK,E. coli [8]; [17],>=8 μg/mL
same,MIC,"E. coli [5]; patient two urine sample infected with E. coli, read-out: MIC reported by Microdilution",64 µg/mL
same,MIC reported by Microdilution,E. coli [5]; [17],64 µg/mL
same,MIC,K. pneumoniae [2]; Clinical isolate K. pneumoniae,16 µg/mL
O=C1CN(/N=C/c2ccc([N+](=O)[O-])o2)C(=O)N1 [Nitrofurantoin],MIC,E. coli [8]; [16],≤ 32 µg/mL
CN[C@H](CC(C)C)C(=O)N[C@H]1C(=O)N[C@@H](CC(N)=O)C(=O)N[C@H]2C(=O)N[C@H]3C(=O)N[C@H](C(=O)N[C@H](C(=O)O)c4cc(O)cc(O)c4-c4cc3ccc4O)[C@H](O)c3ccc(c(Cl)c3)Oc3cc2cc(c3O[C@@H]2O[C@H](CO)[C@@H](O)[C@H](O)[C@H]2O[C@H]2C[C@](C)(N)[C@H](O)[C@H](C)O2)Oc2ccc(cc2Cl)[C@H]1O [Vancomycin],Interpretation of results of the present method,E. faecalis [10],Sensitive
same,Interpretation of results of the present method,E. faecalis [10]; listed as vancomycin,sensitive
same,MIC,E. faecalis [9],1 µg/mL
same,Interpretation by Microdilution,"E. faecalis [9]; Patient two sample infected with E. faecalis, EUCAST breakpoints",Sensitive
Gentamicin,MIC reported by Microdilution,P. aeruginosa [6]; [18],>=32 μg/mL
same,Interpretation by Microdilution,"P. aeruginosa [6]; Patient two sample infected with P. aeruginosa, EUCAST breakpoints",Resistant
same,Interpretation of results of the present method,[11],Resistant
same,Interpretation of results of the present method,[11]; listed as gentamicin,resistant
same,MIC reported by Microdilution,K. pneumoniae [1]; [15],0.5 µg/mL
same,Interpretation by Microdilution,K. pneumoniae [1]; [15],Sensitive
same,Interpretation by VITEK,P. aeruginosa [7]; [18],Resistant
same,MIC reported by VITEK,P. aeruginosa [7]; [18],>=16 μg/mL
same,Interpretation by VITEK,K. pneumoniae [4]; [15],Sensitive
same,MIC reported by VITEK,K. pneumoniae [4]; [15],<=1 μg/mL
same,Interpretation of results of the present method,K. pneumoniae [2],Sensitive
same,Interpretation of results of the present method,K. pneumoniae [2]; listed as gentamicin,sensitive
glucose oxidase [GOx],H2O2 generated,[12]; 6 mU GOx,60.76 ± 7.6 µM
same,H2O2 generated,[12]; 10 mU GOx,113.46 ± 48.1 µM
same,H2O2 generated,[12]; 30 mU GOx,166.25 ± 5.3 µM
